Measurements taken from ChEMBL document CHEMBL1149524 (Bioorg Med Chem Lett, 2006).
pKi: −log10 of the molar value. ≈ marks a conversion by molar mass, not a printed value.

How the values were obtained:
[1] = molecular target: Cathepsin S (Homo sapiens, UniProt P25774); assay: Inhibition of cathepsin S; assay type: single protein
[2] = molecular target: T1, Cathepsin K (Homo sapiens, UniProt P43235); assay: Inhibition of cathepsin K; assay type: single protein
T1 sequence (P43235 whole entry): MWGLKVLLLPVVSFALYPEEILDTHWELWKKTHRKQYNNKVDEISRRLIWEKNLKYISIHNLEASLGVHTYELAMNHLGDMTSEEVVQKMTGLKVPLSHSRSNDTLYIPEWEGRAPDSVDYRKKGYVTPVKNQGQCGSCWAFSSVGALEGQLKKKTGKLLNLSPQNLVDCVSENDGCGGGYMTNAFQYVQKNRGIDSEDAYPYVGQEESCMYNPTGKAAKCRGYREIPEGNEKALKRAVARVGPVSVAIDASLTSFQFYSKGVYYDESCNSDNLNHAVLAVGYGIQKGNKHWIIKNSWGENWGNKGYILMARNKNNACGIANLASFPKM

[3] = molecular target: Procathepsin L (Homo sapiens, UniProt P07711)
Description: Inhibition of cathepsin L

[4] = Solubility at pH 6.8; assay type: physicochemical; conditions: buffer
[5] = test system: Liver microsomes; assay: Stability in rat liver microsomes; assay type: ADME, Microsome
[6] = Half life in Wistar rat at 3 mg/kg, iv; assay type: ADME, organism-based; set-up: dose 3 mg/kg, route intravenous; conditions: in vivo
[7] = Clearance in Wistar rat at 3 mg/kg, iv; assay type: ADME, organism-based; set-up: dose 3 mg/kg, route intravenous; conditions: in vivo
[8] = Volume of distribution in Wistar rat at 3 mg/kg, iv; assay type: ADME, organism-based; set-up: dose 3 mg/kg, route intravenous; conditions: in vivo, read-out: Vdss
[9] = Half life in Wistar rat at 10 mg/kg, po; assay type: ADME, organism-based; set-up: dose 10 mg/kg, route oral; conditions: in vivo
[10] = Cmax in Wistar rat at 10 mg/kg, po; assay type: ADME, organism-based; set-up: dose 10 mg/kg, route oral; conditions: in vivo
[11] = AUC in Wistar rat at 10 mg/kg, po; assay type: ADME, organism-based; set-up: dose 10 mg/kg, route oral; conditions: plasma
[12] = Bioavailability in Wistar rat at 10 mg/kg, po; assay type: ADME, organism-based; conditions: in vivo
[13] = molecular target: T2, Cathepsin F (Homo sapiens, UniProt Q9UBX1); assay: Inhibition of cathepsin F
T2 sequence (Q9UBX1 whole entry): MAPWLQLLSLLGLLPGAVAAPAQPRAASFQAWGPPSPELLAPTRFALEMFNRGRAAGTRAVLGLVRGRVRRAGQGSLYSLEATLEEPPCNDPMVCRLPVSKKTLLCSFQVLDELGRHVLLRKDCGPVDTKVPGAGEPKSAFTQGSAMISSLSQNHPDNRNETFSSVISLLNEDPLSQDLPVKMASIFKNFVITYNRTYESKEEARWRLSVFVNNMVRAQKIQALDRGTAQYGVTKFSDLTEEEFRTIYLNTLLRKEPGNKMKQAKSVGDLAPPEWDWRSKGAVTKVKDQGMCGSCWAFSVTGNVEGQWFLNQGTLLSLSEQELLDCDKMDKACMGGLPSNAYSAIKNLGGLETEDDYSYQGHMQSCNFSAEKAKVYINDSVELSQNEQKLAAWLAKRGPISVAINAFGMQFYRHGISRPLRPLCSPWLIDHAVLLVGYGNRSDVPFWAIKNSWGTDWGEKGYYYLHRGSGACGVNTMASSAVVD

[14] = molecular target: T3, Pro-cathepsin H (Homo sapiens, UniProt P09668); assay: Inhibition of cathepsin H
T3 sequence (P09668 whole entry): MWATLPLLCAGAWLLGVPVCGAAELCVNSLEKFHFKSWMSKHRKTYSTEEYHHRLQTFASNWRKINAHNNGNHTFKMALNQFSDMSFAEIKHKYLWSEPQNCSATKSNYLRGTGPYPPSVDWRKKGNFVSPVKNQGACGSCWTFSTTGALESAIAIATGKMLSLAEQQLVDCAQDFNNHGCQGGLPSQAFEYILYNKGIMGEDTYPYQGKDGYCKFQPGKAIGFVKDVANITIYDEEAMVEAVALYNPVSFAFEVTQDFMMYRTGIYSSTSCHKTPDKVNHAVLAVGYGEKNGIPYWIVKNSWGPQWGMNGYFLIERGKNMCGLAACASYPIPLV

[15] = molecular target: T4, Cathepsin L2 (Homo sapiens, UniProt O60911); assay: Inhibition of cathepsin V
T4 sequence (O60911 whole entry): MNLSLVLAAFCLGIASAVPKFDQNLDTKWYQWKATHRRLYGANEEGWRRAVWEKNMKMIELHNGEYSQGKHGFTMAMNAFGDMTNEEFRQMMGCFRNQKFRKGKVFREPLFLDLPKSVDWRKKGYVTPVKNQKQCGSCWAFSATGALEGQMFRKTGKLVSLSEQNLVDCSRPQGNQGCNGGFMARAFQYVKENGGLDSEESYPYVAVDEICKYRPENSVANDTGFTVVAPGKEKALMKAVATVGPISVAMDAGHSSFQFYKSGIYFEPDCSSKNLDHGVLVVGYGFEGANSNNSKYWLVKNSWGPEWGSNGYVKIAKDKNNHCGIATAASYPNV

[16] = molecular target: Cathepsin Z (Homo sapiens, UniProt Q9UBR2); assay: Inhibition of cathepsin X
[17] = molecular target: Cathepsin B (Homo sapiens, UniProt P07858); assay: Inhibition of cathepsin B

Cathepsin S, sequence (P25774 whole entry): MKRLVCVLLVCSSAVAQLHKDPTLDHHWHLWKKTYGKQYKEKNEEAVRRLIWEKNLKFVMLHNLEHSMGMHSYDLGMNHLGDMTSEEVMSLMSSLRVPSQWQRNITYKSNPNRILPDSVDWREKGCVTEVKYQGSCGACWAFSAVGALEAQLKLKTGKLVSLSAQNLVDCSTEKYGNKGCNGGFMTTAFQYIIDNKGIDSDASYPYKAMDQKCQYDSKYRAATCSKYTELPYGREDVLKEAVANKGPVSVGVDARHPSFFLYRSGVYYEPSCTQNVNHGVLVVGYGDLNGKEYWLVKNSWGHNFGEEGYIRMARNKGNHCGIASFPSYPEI
Procathepsin L, sequence (P07711 whole entry): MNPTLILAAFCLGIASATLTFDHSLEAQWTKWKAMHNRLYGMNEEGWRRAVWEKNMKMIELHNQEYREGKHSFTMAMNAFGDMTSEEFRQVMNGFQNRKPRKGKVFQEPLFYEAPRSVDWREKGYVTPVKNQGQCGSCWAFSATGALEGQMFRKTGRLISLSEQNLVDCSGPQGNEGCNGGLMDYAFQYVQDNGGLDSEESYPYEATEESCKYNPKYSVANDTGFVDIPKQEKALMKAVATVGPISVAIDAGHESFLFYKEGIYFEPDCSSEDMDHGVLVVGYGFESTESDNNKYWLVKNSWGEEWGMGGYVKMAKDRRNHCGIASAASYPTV
Cathepsin Z, sequence (Q9UBR2 whole entry): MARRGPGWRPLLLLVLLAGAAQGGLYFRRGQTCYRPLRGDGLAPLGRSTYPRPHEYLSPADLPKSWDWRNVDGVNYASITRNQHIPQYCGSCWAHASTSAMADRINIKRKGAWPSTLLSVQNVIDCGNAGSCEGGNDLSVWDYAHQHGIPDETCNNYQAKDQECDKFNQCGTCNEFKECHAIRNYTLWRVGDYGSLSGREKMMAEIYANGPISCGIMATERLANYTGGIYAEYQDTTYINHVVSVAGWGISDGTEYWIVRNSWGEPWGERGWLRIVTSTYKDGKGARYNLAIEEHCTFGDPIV

Compound | pKi [1] | pKi [2] | pKi [3] | further results
CC(C)(C)C[C@H](NC(=O)N1CCOCC1)C(=O)NCCNc1ccc(OC(F)(F)F)cc1 | 6.66 | 5.88 | < 4.52 | –
O=C(N[C@@H](CC1CCCCC1)C(=O)NCCNc1ccc(OC(F)(F)F)cc1)c1ccc(-c2cccc(F)c2)o1 | 7.47 | 4.93 | – | –
C[C@@H](CNc1ccc(OC(F)(F)F)cc1)NC(=O)[C@H](CC1CCCC1)NC(=O)N1CCOCC1 | 7.31 | 5.81 | – | –
C[C@@H](CNc1ccc(OC(F)(F)F)cc1)NC(=O)[C@H](CC1CCCCC1)NC(=O)OC1CCOCC1 | 7.92 | 4.88 | – | –
C[C@@H](CNc1ccc(OC(F)(F)F)cc1)NC(=O)[C@H](CC(C)(C)C)NC(=O)N1CCOCC1 | 7.03 | 6.34 | 4.84 | –
O=C(N[C@@H](CC1CCCCC1)C(=O)NCCNc1ccc(OC(F)(F)F)cc1)C1CCOC1 (stereo partly drawn) | 6.67 | < 4.52 | 5.10 | –
C[C@@H](CNc1ccc(OC(F)(F)F)cc1)NC(=O)[C@H](CC1CCCCC1)NC(=O)[C@@H]1CCCO1 | 7.28 | < 4.52 | – | –
O=C(NCCNc1ccc(OC(F)(F)F)cc1)[C@H](Cc1ccccc1)NC(=O)N1CCOCC1 | 4.94 | < 4.00 | < 4.00 | –
CS(=O)(=O)CC[C@@H](CNc1ccc(OC(F)(F)F)cc1)NC(=O)[C@H](CC1CCCCC1)NC(=O)N1CCOCC1 | 8.30 | 6.86 | 8.40 | –
C[C@@H](CN1CC(C)(C)c2cc(F)ccc21)NC(=O)[C@H](CC1CCCCC1)NC(=O)N1CCOCC1 | 7.96 | 4.77 | 6.09 | solubility [4]: 10 µg/mL (≈ 20.5 µM); Stability [5]: < 1%
C[C@@H](CNc1ccc(OC(F)(F)F)cc1)NC(=O)[C@H](CC1CCCCC1)NC(=O)C1CCOC1 (stereo partly drawn) | 7.68 | < 4.52 | 5.32 | solubility [4]: 30 µg/mL (≈ 61.8 µM); Stability [5]: 56%; half-life [6]: 108 min; clearance [7]: 39 mL/min/kg; Vd [8]: 2.48 L/kg; half-life [9]: 90 min; Cmax [10]: 491 nM; AUC [11]: 817 ng·h/mL; bioavailability [12]: 19%
C[C@@H](CN1c2ccc(F)cc2CC1(C)C)NC(=O)[C@H](CC1CCCCC1)NC(=O)N1CCOCC1 | 6.95 | 4.88 | – | –
O=C(NCCNc1ccc(OC(F)(F)F)cc1)[C@H](CC1CCCCC1)NC(=O)N1CCOCC1 | 7.00 | 4.73 | – | –
O=C(N[C@@H](CC1CCCCC1)C(=O)NCCNc1ccc(OC(F)(F)F)cc1)c1ccoc1 | 8.22 | 5.03 | – | –
CC[C@@H](CNc1ccc(OC(F)(F)F)cc1)NC(=O)[C@H](CC1CCCCC1)NC(=O)N1CCOCC1 | 7.96 | 6.89 | 8.22 | –
C[C@@H](CNc1ccc(OC(F)(F)F)cc1)NC(=O)[C@H](CS(=O)(=O)Cc1ccccc1)NC(=O)N1CCOCC1 | – | < 4.00 | < 4.52 | pKi [13]: < 4.52; pKi [14]: < 4.52; pKi [15]: < 4.52; pKi [16]: < 4.52; pKi [17]: < 4.52; solubility [4]: 43 µg/mL (≈ 75.1 µM); Stability [5]: 100%; half-life [6]: 49 min; clearance [7]: 39 mL/min/kg; Vd [8]: 0.87 L/kg; half-life [9]: 66 min; Cmax [10]: 639 nM; AUC [11]: 700 ng·h/mL; bioavailability [12]: 16%
COc1ccc(NCCNC(=O)[C@H](CC2CCCCC2)Nc2nc3ccccc3o2)cc1 | – | – | – | solubility [4]: 10 µg/mL (≈ 22.9 µM); Stability [5]: 4%; bioavailability [12]: < 1%
COc1ccc(NCCNC(=O)[C@H](CC2CCCCC2)NC(=O)c2ccc(-c3cccc(C(F)(F)F)c3)o2)cc1 | – | – | – | solubility [4]: < 1 µg/mL; Stability [5]: 12%; half-life [9]: 146 min; Cmax [10]: 19 nM; AUC [11]: 50 ng·h/mL
C[C@@H](CNc1ccc(OC(F)(F)F)cc1)NC(=O)[C@H](CC1CCCCC1)NC(=O)C1CCOCC1 | 7.92 | 4.84 | – | –
C[C@@H](CNc1ccc(OC(F)(F)F)cc1)NC(=O)[C@H](CC1CCCCC1)NC(=O)[C@H]1CCCO1 | 7.74 | 5.34 | – | solubility [4]: 25 µg/mL (≈ 51.5 µM); Stability [5]: 66%; half-life [6]: 66 min; clearance [7]: 35 mL/min/kg; Vd [8]: 1.78 L/kg; half-life [9]: 58 min; Cmax [10]: 1240 nM; AUC [11]: 1750 ng·h/mL; bioavailability [12]: 36%
C[C@@H](CN1CCc2cc(F)ccc21)NC(=O)[C@H](CC1CCCCC1)NC(=O)N1CCOCC1 | 7.06 | 5.29 | – | –
C[C@@H](CNc1ccc(OC(F)(F)F)cc1)NC(=O)[C@H](CC1CCCCC1)NC(=O)O[C@H]1CCOC1 | 7.31 | < 4.52 | 6.23 | –
O=C(NCCNc1ccc(OC(F)(F)F)cc1)[C@H](CC1CCCCC1)NC(=O)[C@H]1CCCO1 | 6.18 | < 4.52 | 5.51 | –
C[C@@H](CNc1ccc(OC(F)(F)F)cc1)NC(=O)[C@H](CC1CCCCC1)NC(=O)O[C@@H]1CCOC1 | 7.38 | < 4.52 | 5.59 | –
O=C(N[C@@H](CC1CCCCC1)C(=O)NCCNc1ccc(OC(F)(F)F)cc1)c1cc2ccccc2o1 | 7.77 | 6.82 | – | –
C[C@@H](CNc1ccc(OC(F)(F)F)cc1)NC(=O)[C@H](CC1CCCCC1)NC(=O)N1CCOCC1 | 7.96 | 5.78 | – | –
O=C(N[C@@H](CC1CCCCC1)C(=O)NCCNc1ccc(OC(F)(F)F)cc1)c1ccc(-c2cccc(C(F)(F)F)c2)o1 | 7.96 | 5.07 | – | –
C[C@@H](CNc1ccc(OC(F)(F)F)cc1)NC(=O)[C@H](CSCc1ccccc1)NC(=O)N1CCOCC1 | 7.92 | 5.61 | – | –
O=C(N[C@@H](CC1CCCCC1)C(=O)NCCNc1ccc(OC(F)(F)F)cc1)c1ccco1 | 7.33 | 5.06 | 5.94 | –
